Legend:
Assay type in all cases: cell-based
[1] = tested on: human adipose stem cells (hASCs); assay: ALP activity of hASCs seeded in BCP scaffold
Protocol: (§1) In one embodiment, a method of static culture of hASCs by pre-treatment with vitamin D3 (calcitriol) and attachment of hASCs to the scaffold used in one-step surgical procedure comprises the following steps. At one step, isolating hASCs as explained in FIG. 1. In an embodiment, the hASCs from three donors at passage 3 are used for further processing. As an optional step, the obtained hASCs are either or not incubated for a period of about 30 mins with low concentrated calcitriol of about 10 nM at room temperature.
(§2) At next step, the calcitriol treated hASCs are washed twice with Phosphate Buffered Saline (PBS) to remove calcitriol. Further, the washed hASCs are centrifuged and resuspended in Dulbecco's Minimum Essential Medium (DMEM) without any supplements. At another step, the resuspended cells are seeded on the scaffold and allowed to attach to the scaffolds for a period of about 30 minutes. At next step, the scaffolds with attached cells are transferred to 12-well plates with Costar® Transwell® containers (Corning Life Sciences, Lowell, Mass., USA) containing expansion medium (DMEM) supplemented with 10% Fetal Clone I (FCI), antibiotics (1% penicillin/streptomycin/fungizone (PSF)), 50 μM ascorbic acid (Merck, Darmstadt, Germany), and 10 mM β-glycerol phosphate (Merck, Darmstadt, Germany) (PLGA/β-TCP). At next step, the hASCs seeded scaffolds are incubated at 5% CO2 in a humidified incubator at predefined temperature of about 37° C. for a period of about 3 weeks.
Referring to FIGS. 5A and 5B, the effects of calcitriol treatment on ALP activity of hASCs, where the calcitriol pre-treatment is conducted for a short period of 30 minutes and a long period of about 3 weeks. […] The ALP activity of continuous treated cells with calcitriol is increased by 2.6-fold relative to non-treated cells after 2 weeks of culture.

[2] = tested on: human adipose stem cells (hASCs); assay: Osteogenic gene expression of hASCs seeded on BCP20/80 scaffold; details: for RUNX2 gene expression, increase: 30 min incubation
Protocol: as §1, §2
Referring to FIGS. 8A to 8I, the effects of short and long calcitriol treatment on osteogenic gene expression of hASCs is disclosed, where hASCs are seeded in BCP scaffold. The stimulatory effect of 30 min calcitriol on osteogenic gene expression in hASCs seeded on BCP20/80 at day 21 is more noticeable than continuous calcitriol treatment. The 30 mins incubation with calcitriol increases the RUNX2 (early osteogenic marker) gene expression in hASCs by 3.6-fold after 2 weeks, and 5.7-fold after 3 weeks of culture compared to non-treated hASCs. FIGS. 8A to 8I exemplarily illustrate the effects of calcitriol treatment on osteogenic gene expression of hASCs.
The 30 minutes pre-treatment of hASCs with calcitriol increases VEGF189 gene expression, whereas in continuous calcitriol treatment, the VEGF189 gene expression reaches almost steady expression levels during the 3 weeks of culture. The VEGF189 gene expression in 30 minutes calcitriol pre-treated hASCs is increased by 1.5-fold at day 21, but it is decreased in continuous treatment by 0.6-fold compared to non-treated hASCs as shown in FIG. 8I.

[3] = tested on: human adipose stem cells (hASCs); assay: Osteogenic and angiogenic gene expression of hASCs in 3D PLGA/β-TCP scaffold, dynamic and static culture
Protocol: In one embodiment, dynamic culture of pre-treated hASCs with calcitriol, using the modified perfusion bioreactor comprises the following steps. In one embodiment, the scaffolds are 3D PLGA/β-TCP. The modified perfusion bioreactor […] comprises five scaffolds, loaded with a total of 70 ml of culture medium as shown in FIG. 2. At another step, 30 ml of the culture medium is replaced twice a week for a total period of two weeks. At another step, the culture medium in the modified perfusion bioreactor 200 is distributed to the five scaffolds with the flow rate of about 5 ml/min using the peristaltic pump 202.
In one embodiment, the method of static culture of pre-treated hASCs is continued in a flask bioreactor with the same volume of culture medium utilized in the dynamic culture. Further, the methods of culturing the hASCs are divided into different groups. In one embodiment, the methods of culturing of hASCs are divided into four groups such as, static culture of non-treated hASCs, static culture of pre-treated hASCs with calcitriol, dynamic culture of non-treated hASCs and dynamic culture of pre-treated hASCs with calcitriol.
Referring to FIGS. 11A to 11I, the effects of perfusion culture of hASCs on osteogenic and angiogenic differentiation of hASCs are disclosed, where the hASCs are seeded in 3D PLGA/β-TCP scaffold. In one embodiment, the hASCs are pre-treated with or without 10 nM of calcitriol for 30 minutes and cultured in the modified perfusion bioreactor (dynamic culture) and flask bioreactor (static culture).

[4] = continuous treatment, 3 weeks of culture
[5] = 14 days, perfusion culture of pre-treated vs perfusion culture of non-treated hASCs
[6] = 14 days, perfusion culture of pre-treated vs static culture of pre-treated hASCs
[7] = day 7, dynamic culture of pre-treated vs perfusion culture of non-treated hASCs
[8] = day 7, dynamic culture of pre-treated vs static culture of treated hASC

C=C1/C(=C\C=C2/CCC[C@]3(C)[C@@H]([C@H](C)CCCC(C)(C)O)CC[C@@H]23)C[C@@H](O)C[C@@H]1O [calcitriol, 1,25-dihydroxyvitamin D3]
ALP activity, increase ([1]; 30 min pre-treatment, after 2 weeks of culture, vs non-treated cells): 18.5 fold | ALP activity, increase ([1]; 30 min pre-treatment, after 3 weeks of culture): 2.4 fold | ALP activity, increase ([1]; continuous treatment with 10 nM, after 2 weeks, vs non-treated cells): 2.6 fold | ALP activity, change ([1]; continuous treatment with 10 nM, at 3 weeks): 0.4 fold | ALP gene expression ([2]; 30 min calcitriol, BCP20/80): upregulates | RUNX2 gene expression, increase ([2]; after 2 weeks, vs non-treated hASCs): 3.6 fold | RUNX2 gene expression, increase ([2]; after 3 weeks, vs non-treated hASCs): 5.7 fold | CYP24 gene expression ([2]; 30 min pre-treated cells): not expressed | Ki-67 gene expression ([2]; 30 min pre-treatment, 3 weeks of culture): decreases | VDR gene expression ([2]; 30 min pre-treatment, compared to continuous treatment, maximal stimulation at day 14): increases | SPARC expression, increase ([2]; 30 min pre-treatment, day 14): 2.1 fold | VEGF189 gene expression, increase ([2]; 30 min pre-treatment, day 21, vs non-treated hASCs): 1.5 fold | OPN expression ([2]; 30 min treatment, day 21): increases | CYP24 gene expression [2, 4]: remarkably increases | Ki-67 gene expression [2, 4]: no change | RUNX2 expression, decrease ([2]; continuous treatment, after 2 weeks): 0.81 fold | RUNX2 expression, increase ([2]; continuous treatment, after 3 weeks): 2.4 fold | OPN gene expression ([2]; continuous treatment, day 4): upregulates | SPARC expression, decrease ([2]; continuous treatment, day 14): 0.8 fold | VEGF189 gene expression, decrease ([2]; continuous treatment, day 21, vs non-treated hASCs): 0.6 fold | DMP1 gene expression ([2]; over about 3 weeks, treatment group not specified): gradual and insignificant increase | CYP27B1 gene expression, increase [3, 5]: 5.3 fold | Endotelin-1 gene expression, increase [3, 5]: 4 fold | Ki-67 gene expression, increase [3, 5]: 1.8 fold | OCN gene expression, increase [3, 5]: 2.1 fold | RUNX2 gene expression, increase [3, 5]: 6.4 fold | SPARC gene expression, increase [3, 5]: 2.8 fold | VEGF165 gene expression, increase [3, 5]: 3.1 fold | VEGF189 gene expression, increase [3, 5]: 2.5 fold | CYP27B1 gene expression, increase [3, 6]: 15.4 fold | Endotelin-1 gene expression, increase [3, 6]: 35 fold | Ki-67 gene expression, increase [3, 6]: 5.1 fold | OCN gene expression, increase [3, 6]: 4.1 fold | OPN gene expression, increase [3, 6]: 60 fold | RUNX2 gene expression, increase [3, 6]: 82.8 fold | SPARC gene expression, increase [3, 6]: 33.2 fold | VEGF165 gene expression, increase [3, 6]: 1.4 fold | VEGF189 gene expression, increase [3, 6]: 5.7 fold | OPN gene expression (level) ([3]; day 7, dynamic culture of pre-treated hASC): 0.1084 | Endotelin-1 gene expression, increase [3, 7]: 120.9 fold | Ki-67 gene expression, increase [3, 7]: 45.9 fold | OCN gene expression, increase [3, 7]: 1.8 fold | RUNX2 gene expression, increase [3, 7]: 186.5 fold | SPARC gene expression, increase [3, 7]: 3 fold | VEGF165 gene expression, increase [3, 7]: 3 fold | VEGF189 gene expression, increase [3, 7]: 3.4 fold | Endotelin-1 gene expression, increase [3, 8]: 5.4 fold | OCN gene expression, increase [3, 8]: 7.1 fold | OPN gene expression, increase [3, 8]: 47.3 fold | SPARC gene expression, increase [3, 8]: 7.5 fold | VEGF165 gene expression, increase [3, 8]: 9.8 fold | VEGF189 gene expression, increase [3, 8]: 8.8 fold | OPN gene expression (level) ([3]; day 7, static culture of treated hASC): 0.002291
